# Patent US20060058364A1, “Treatment of dependence and dependence related withdrawal symptoms” (priority 2002, published 2006)
# Like-named read-outs stand apart in the source and are kept apart here.
# Legend:
# [1] = test system: atipamezole cue (atipamezole-associated lever selection); assay type: in vivo; conditions: for dose at which full generalization was achieved: training dose 1 mg/kg s.c.
# Protocol: A total of 50 Sprague-Dawley male rats (B&K, Sweden) were used in the drug discrimination experiment at Orion Pharma, Turku, Finland. The rats were housed in solid bottom polypropylene cages with stainless steel mesh lids 5 rats per cage on a 12/12 hour light/dark cycle (lights on at 06.00 a.m.) under standard conditions in 21±1° C. temperature. […] During training period the rats were allowed food 6-15 g/day immediately after the session and during testing period they were allowed 12-15 g/day after the session. The rats adopted well to this feeding schedule and grew slowly but steadily. Rats were drug and experimentally naive at the start of the experiments. All experimentation was approved by the local laboratory animal care and experimentation committee. The animals were housed according to the recommendations of Declaration of Helsinki and DHEW pub. No (NIH) 85-23 entitled “Guide for the care and use of laboratory animals”.
# The drugs used were atipamezole HCl and MPV-1730 HCl (Orion Pharma, Finland), d-amphetamine sulphate (Sigma, USA), cocaine HCl (Tamro, Finland)) and desipramine HCl (Sigma, USA). All doses refer to respective salt forms. Drugs were diluted in sterile purified water (Aquasteril, Orion Pharma, Finland) and were prepared daily. Injections were given 30 min before the sessions. Saline (Natrosteril, Orion Pharma, Finland) was used in control administrations. Drugs were administered subcutaneously (s.c.) or intraperiotoneally (i.p.) in a volume of 1 ml/kg or perorally (p.o.) gy a gavage 10 ml/kg.
# In the atipamezole discrimination experiment five identical operant chambers enclosed in larger sound and light attenuating, fan ventilated enclosures were used. Each chamber was equipped with two identical levers on one wall. Between these levers was a food cup, where 45 mg reward pellets (F0021, Bio-Serv, Frenchtown, USA) could be presented. The whole operant system was purchased from Rhema-Labortechnik, Hofheim, Germany.
# The training to press levers for reward pellets was started with 50 rats with a continuous reinforcement (CRF) schedule, when both levers were active and later by changing daily the active lever. […] The duration of the session to this point was 30 min and thereafter the training sessions were reduced to 15 min. The discrimination training dose of atipamezole (1 mg/kg s.c.) was selected according to the effect of atipamezole (0, 0.1, 0.3, 1 and 3 mg/kg s.c.) on FR-10 responding when tested in the rats (session 30, data not shown). Thereafter, discrimination training was started with 46 rats. The discrimination training was done in following two week sequence: S-D-D-S-S and D-S-S-D-D (D=drug appropriate lever, S=saline lever) (Colpaert F., Niemegeers, C., Janssen, P. Theoretical and methodological considerations on drug discrimination learning. Psychopharmacologia (Berl.) 46: 169-177, 1976.). For half of the rats the right lever was a drug-appropriate lever and for the another half the left lever. During training only the drug- or saline-appropriate lever was active, but both levers were recorded. If a rat chose the correct lever during ten consecutive sessions and the total number of responses before the first reinforcer was 15 or less, the rat was accepted to the drug tests.
# When the rats had reached the criterion, they were tested twice a week (usually on Wednesdays and Fridays) with different drugs. The normal sequence of saline or atipamezole was continued on other days. The lever selection had to be correct on the preceding day of the drug test and on the next day after drug test in order to be approved in the results. In the testing day, the rat decided which lever was activated by pressing ten lever presses on either of the levers. The selected lever was activated during the rest of the session. The previous saline day was used as a predrug control value. […]
# [2] = test system: alpha1-adrenergic, dopaminergic, GABAergic, serotonergic (such as 5-HT1A) etc. receptors; conditions: cited from earlier work
# [3] = test system: 5-HT1A receptors or 5-HT1D receptors; conditions: cited from earlier work
# [4] = test system: psychostimulants such as amphetamine and cocaine (cue); conditions: rat, in vivo; cited from earlier work
# idazoxan cue = conditions: rats trained to discriminate idazoxan; cited from earlier work
# [5] = test system: dopaminergic, 5-hydroxyhyptaminergic receptors and benzodiazepine receptors; conditions: cited from earlier work
# amphetamine cue = conditions: rats trained to discriminate d-amphetamine; cited from earlier work
smiles,measurement,setting,value
"CCC1(c2c[nH]cn2)Cc2ccccc2C1.Cl [Atipamezole, 4-(2-ethyl-2,3-dihydro-1H-inden-2-yl)-1H-imidazole hydrochloride]",atipamezole-associated lever selection,"[1]; 0.003-10 mg/kg, FIG. 1",dose-responsively increased
same,dose at which full generalization was achieved,"[1]; atipamezole p.o., 60 min before session, FIG. 1",1 mg/kg
same,dose at which full generalization was achieved,"[1]; atipamezole s.c., 30 min before session, FIG. 1",0.3 mg/kg
same,affinity for any other neurotransmitter receptors,[2],negligible affinity
COc1ccccc1N1CCN(CCN2C(=O)c3ccccc3C(C)(C)C2=O)CC1 [ARC 239],affinity on 5-HT1A receptors or 5-HT1D receptors,[3],have affinity
CC1c2ccccc2CN1CC1=NCCN1 (stereo not drawn) [BRL 44408],affinity on 5-HT1A receptors or 5-HT1D receptors,[3],have affinity
"CCC1(c2c[nH]cn2)Cc2ccc(F)cc2C1 (stereo not drawn) [MPV-1730, 4-(2-ethyl-5-fluoro-2,3-dihydro-1H-inden-2-yl)-1H-imidazole]",generalization to atipamezole cue,"[1]; 0.01-1 mg/kg s.c., 30 min before session, FIG. 3",generalized to atipamezole cue
COC1(C2=NCCN2)COc2ccccc2O1 (stereo not drawn) [RX821002],affinity on 5-HT1A receptors or 5-HT1D receptors,[3],have affinity
CNCCCN1c2ccccc2CCc2ccccc21 [desipramine],generalization to atipamezole,"[1]; i.p., 30 min before session, FIG. 4",not generalized
same,tolerability of higher doses,"[1]; rat, in vivo",discontinued due to a prolonged lack of appetite
same,generalisation to psychostimulants,[4],only weakly
COc1ccc2c(c1)CCN1C[C@H]3CCCN(S(C)(=O)=O)[C@H]3C[C@@H]21 [delequamine],affinity on 5-HT1A receptors or 5-HT1D receptors,[3],have affinity
C[C@H](N)Cc1ccccc1 [d-amphetamine],generalization to idazoxan,idazoxan cue,did not generalize
same,generalization to atipamezole cue,"[1]; s.c., tested 0.03-1 mg/kg, at doses 0.5 and 1 mg/kg, 30 min before session, FIG. 2",clearly generalized
COC(=O)[C@@H]1[C@H]2C[C@H]3c4[nH]c5ccccc5c4CCN3C[C@@H]2CC[C@@H]1O [yohimbine],affinity to other than noradrenergic receptors,[5],has affinity
same,generalization to amphetamine,amphetamine cue,did not generalize
c1ccc2c(c1)OCC(C1=NCCN1)O2 (stereo not drawn) [idazoxan],generalization to amphetamine,amphetamine cue,did not generalize
same,affinity on 5-HT1A receptors or 5-HT1D receptors,[3],have affinity
